The values that follow come from patent publication US6710080B2, “Substituted 2-dialkylaminoalkylbiphenyl derivatives” (Gruenenthal GmbH, priority 1999, dated 2004).

Structures are written as SMILES. Counter-ions that a name gives are not always drawn.

This test concerns phenylquinone-induced writhing in mice. In words: Writhing test in mice. The format is in vivo. Conditions: Mus musculus, male NMRI mice; for inhibition at 10 mg/kg: 10 mg/kg intravenously 10 minutes before phenylquinone i.p., writhing counted 5-20 minutes after phenylquinone, read-out: % Inhibition of the writhing reaction with 10 mg/kg intravenously; for ED50: iv, intravenously, regression analysis of dose-dependent decrease in writhing reactions. Here is the method:
The analgesic activity was investigated on phenylquinone-induced writhing in mice (modified by I. C. Hendershot, J. Forsaith, J. Pharmacol. Exp. Ther. 125, 237-240 (1959)). Male NMRI mice weighing 25-30 g were used for this. Groups of 10 animals per dose of substance received 0.3 ml/mouse of a 0.02% aqueous solution of phenylquinone (phenylbenzoquinone, Sigma, Deisenhofen; preparation of the solution with addition of 5% ethanol and storage in a water bath at 45° C.) as an intraperitoneal administration 10 minutes after intravenous administration of the test substances. The animals were placed individually in observation cages. The number of pain-induced extension movements (so-called writhing reactions=straightening of the body with stretching out of the hind extremities) 5-20 minutes after the administration of phenylquinone was counted by means of a push-button counter. Animals which receive only physiological saline solution were also run as a control. All the substances were tested in the standard dosage of 10 mg/kg. The percentage inhibition (% inhibition) of the writhing reaction by a substance was calculated in accordance with the following equation: [formula]
For some substances, the ED50 values with 95% confidence limits of the writhing reaction were calculated from the dose-dependent decrease in the writhing reactions compared with phenylquinone control groups investigated in parallel by means of regression analysis (evaluation program of Martens EDV Service, Eckental Germany).
Background: An intraperitoneal irritant provokes the stretching counted in writhing tests.

With `COc1cccc(-c2ccccc2CN(C)C)c1` [Example 1, (3′-Methoxybiphenyl-2-ylmethyl)dimethylamine hydrochloride], the inhibition at 10 mg/kg was determined as 53%.
For orientation: ED50 means the midpoint of the dose-response relation. High values mean a need for a large dose, low ones an effect at a small dose. On to `CN(C)Cc1ccccc1-c1ccc(Cl)cc1.Cl` [Example 2, (4′-Chlorobiphenyl-2-ylmethyl)dimethylamine hydrochloride], for which it took a dose of 4.55 mg/kg to reach the 50% effect level (ED50) and the inhibition at 10 mg/kg came to 89%.
In the same order, the values of `CN(C)Cc1ccccc1-c1cccc(O)c1.Cl` [Example 3, 2′-Dimethylaminomethylbiphenyl-3-ol hydrochloride] are 0.24 mg/kg and 100%.
In the same order, the values of `COc1ccccc1-c1ccccc1CN(C)C.Cl` [Example 4, (2′-Methoxybiphenyl-2-ylmethyl)dimethylamine hydrochloride] are 3.95 mg/kg and 75%.
The matching figures for `CN(C)Cc1ccccc1-c1cccc(Cl)c1.Cl` [Example 5, (3′-Chlorobiphenyl-2-ylmethyl)dimethylamine hydrochloride]: 4.31 mg/kg and 68%.
As for `CN(C)Cc1ccccc1-c1ccccc1F.Cl` [Example 6, (2′-Fluorobiphenyl-2-ylmethyl)dimethylamine hydrochloride], the ED50 came out at 4.26 mg/kg and the inhibition at 10 mg/kg came to 88%.
For the molecule `CN(C)Cc1ccccc1-c1cccc(F)c1.Cl` [Example 7, (3′-Fluorobiphenyl-2-ylmethyl)dimethylamine hydrochloride], the 50% effect level (ED50) was put at a dose of 2.55 mg/kg and the inhibition at 10 mg/kg turned out to be 90%.
In the same order, the values of `CN(C)Cc1ccccc1-c1ccc(F)cc1.Cl` [Example 8, (4′-Fluorobiphenyl-2-ylmethyl)dimethylamine hydrochloride] are 7.15 mg/kg and 67%.
In the same order, the values of `CN(C)Cc1ccccc1-c1ccc(F)c(Cl)c1.Cl` [Example 9, (3′-Chloro-4′-fluorobiphenyl-2-ylmethyl)dimethylamine hydrochloride] are 2.32 mg/kg and 89%.
In the case of `COc1cccc(-c2ccccc2CCN(C)C)c1.Cl` [Example 10, (3′-Methoxybiphenyl-2-ylethyl)dimethylamine hydrochloride], the 50% effect level (ED50) was put at a dose of 1.7 mg/kg and the inhibition at 10 mg/kg turned out to be 100%.
With `Cc1cc2c(-c3ccccc3CN(C)C)cccc2o1` [Example 11, Dimethyl-[2-(2-methylbenzofuran-4-yl)benzyl]amine hydrochloride], the inhibition at 10 mg/kg was 74%.
Consider `CN(C)Cc1ccccc1-c1ccccc1C=O.Cl` [Example 12, 2′-Dimethylaminomethylbiphenyl-2-carbaldehyde hydrochloride], for which the ED50 was found to be 1.74 mg/kg and the inhibition at 10 mg/kg amounted to 89%.
For the molecule `CN(C)Cc1ccccc1-c1cccc(C(F)F)c1.Cl` [Example 13, (3′-Difluoromethylbiphenyl-2-ylmethyl)dimethylamine hydrochloride], the 50% effect level (ED50) was put at a dose of 5.3 mg/kg and the inhibition at 10 mg/kg was 81%.
In the same order, the values of `CN(C)Cc1ccccc1-c1cccc(C=O)c1.Cl` [Example 14, 2′-Dimethylaminomethylbiphenyl-3-carbaldehyde hydrochloride] are 2.28 mg/kg and 100%.
For `CN(C)Cc1ccccc1-c1ccccc1.Cl` [Example 15, biphenyl-2-ylmethyldimethylamine hydrochloride], the 50% effect level (ED50) was put at a dose of 3.66 mg/kg and the inhibition at 10 mg/kg came out at 52%.
The matching figures for `CN(C)Cc1ccccc1-c1ccc(Cl)c(Cl)c1.Cl` [Example 16, (3′,4′-Dichlorobiphenyl-2-ylmethyl)dimethylamine hydrochloride]: 4.59 mg/kg and 89%.
With `CN(C)Cc1ccccc1-c1cc(Cl)cc(Cl)c1` [Example 17, (3′,5′-Dichlorobiphenyl-2-ylmethyl)dimethylamine hydrochloride], the inhibition at 10 mg/kg is 90%.
Same read-out and setting: to `CN(C)Cc1ccccc1-c1ccc([N+](=O)[O-])c(C(F)(F)F)c1` [Example 18, Dimethyl-(4′-nitro-3′-trifluoromethylbiphenyl-2-ylmethyl)amine hydrochloride] belongs 83%; to `CN(C)Cc1ccccc1-c1ccc(F)c(F)c1` [Example 19, (3′,4′-Difluorobiphenyl-2-ylmethyl)dimethylamine hydrochloride], 86%.
As for `CN(C)Cc1ccccc1-c1ccc(F)c(C(F)(F)F)c1.Cl` [Example 20, (4′-Fluoro-3′-trifluoromethylbiphenyl-2-ylmethyl)dimethyl-amine hydrochloride], the ED50 was 4.99 mg/kg and the inhibition at 10 mg/kg was 83%.
As to `COc1cc(-c2ccccc2CN(C)C)ccc1Cl.Cl` [Example 21, (4′-Chloro-3′-methoxybiphenyl-2-ylmethyl)dimethylamine hydrochloride], the ED50 amounted to 6.78 mg/kg and the inhibition at 10 mg/kg was determined as 53%.
With `CC(C)Oc1cccc(-c2ccccc2CN(C)C)c1` [Example 23, (3′-Isopropoxybiphenyl-2-ylmethyl)dimethylamine hydrochloride], the inhibition at 10 mg/kg was 97%.
Regarding `CN(C)CCc1ccccc1-c1cccc(O)c1.Cl` [Example 24, 2′-(2-Dimethylaminoethyl)biphenyl-3-ol hydrochloride], the ED50 came out at 2.27 mg/kg and the inhibition at 10 mg/kg is 99%.
On to `CN(C)Cc1ccccc1-c1ccc(Cl)c(O)c1` [Example 25, 4-Chloro-2′-dimethylaminomethylbiphenyl-3-ol hydrochloride], for which the inhibition at 10 mg/kg came to 74%.
Take `CN(C)Cc1ccccc1-c1ccc2[nH]ccc2c1` [Example 26, [2-(1H-Indol-5-yl)benzyl]dimethylamine]: it took a dose of 0.75 mg/kg to reach the 50% effect level (ED50) and the inhibition at 10 mg/kg came out at 100%.
With `CN(C)Cc1ccccc1-c1ccc(S(C)(=O)=O)cc1` [Example 27, (4′-Methanesulfonylbiphenyl-2-ylmethyl)dimethylamine hydrochloride], the inhibition at 10 mg/kg came out at 89%.
Still for that read-out and setting: to `CN(C)Cc1ccccc1-c1ccc(Cl)cc1Cl` [Example 28, (2′,4′-Dichlorobiphenyl-2-ylmethyl)dimethylamine hydrochloride] belongs 90%.
Take `CN(C)Cc1ccccc1-c1cccc(F)c1F.Cl` [Example 29, (2′,3′-Difluorobiphenyl-2-ylmethyl)dimethylamine hydrochloride]: it took a dose of 5.71 mg/kg to reach the 50% effect level (ED50) and the inhibition at 10 mg/kg turned out to be 83%.
For `CN(C)Cc1ccccc1-c1cc(F)ccc1F` [Example 30, (2′,5′-Difluorobiphenyl-2-ylmethyl)dimethylamine hydrochloride], the inhibition at 10 mg/kg is 89%.
On the same count and under the same terms, the value for `CN(C)Cc1ccccc1-c1ccc2c(c1)OCO2` [Example 31, (2-Benzo [1,3]dioxol-5-ylbenzyl)dimethylamine hydrochloride] was 94%; that for `CC(=O)c1cccc(-c2ccccc2CCN(C)C)c1` [Example 32, 1-[2′-(2-Dimethylaminoethyl)biphenyl-3-yl]ethanone hydrochloride] was 98%.
Same read-out and setting: the value for `COc1ccc(-c2ccccc2CCN(C)C)cc1OC` [Example 33, [2-(3′,4′-Dimethoxybiphenyl-2-yl)ethyl]dimethylamine hydrochloride] was 89%; that for `CC(C)Oc1cccc(-c2ccccc2CCN(C)C)c1` [Example 34, [2-(3′-Isopropoxybiphenyl-2-yl)ethyl]dimethylamine hydrochloride] was 80%.
Still for that read-out and setting: to `COc1cc(-c2ccccc2CCN(C)C)ccc1Cl` [Example 35, [2-(4′-Chloro-3′-methoxybiphenyl-2-yl)ethyl]dimethylamine hydrochloride] belongs 88%; to `CN(C)CCc1ccccc1-c1ccc(Cl)c(O)c1` [Example 36, 4-Chloro-2′-(2-dimethylaminoethyl)biphenyl-3-ol hydrochloride], 93%.
In the case of `CN(C)Cc1ccccc1-c1cccc([N+](=O)[O-])c1` [Example 37, Dimethyl-(3′-nitrobiphenyl-2-ylmethyl)amine hydrochloride], the inhibition at 10 mg/kg stood at 60%.
On to `CN(C)Cc1ccccc1-c1ccc(N)c(O)c1` [Example 38, 4-Amino-2′-dimethylaminomethylbiphenyl-3-ol dihydrochloride], for which the inhibition at 10 mg/kg is 65%.
On the same count and under the same terms, the value for `CN(C)Cc1ccccc1-c1cc(F)cc(F)c1` [Example 39, (3′,5′-Difluorobiphenyl-2-ylmethyl)dimethylamine hydrochloride] was 80%.
In the case of `COc1ccc(OC)c(-c2ccccc2CN(C)C)c1` [Example 40, (2′,5′-Dimethoxybiphenyl-2-ylmethyl)dimethylamine hydrochloride], the inhibition at 10 mg/kg was determined as 57%.
On the same count and under the same terms, to `CN(C)Cc1ccccc1-c1cc(OC(F)(F)F)ccc1N` [Example 41, 2′-Dimethylaminomethyl-5-trifluoromethoxybiphenyl-2-ylamine dihydrochloride] belongs 56%; to `CC(=O)Nc1ccc(OC(F)(F)F)cc1-c1ccccc1CN(C)C` [Example 42, N-(2′-Dimethylaminomethyl-5-trifluoromethoxybiphenyl-2-yl)acetamide hydrochloride], 44%.
